From patent publication US10590129B2 (Incozen Therapeutics Pvt. Ltd., priority 2010, dated 2020)
Counter-ions that a name gives are not always drawn.

Test system: MKN-45 cells
Assay: Inhibition of MKN-45 proliferation (MTT)
Format: cell-based, human
Settings: for inhibition at 1 µM / GI50 / inhibition at 0.1 µM: Homo sapiens, MKN-45, MKN-45 proliferation; for Inhibition (% Inhibition of MKN-45 proliferation) / inhibition at 0.1 µM: 0.1 μM
Experimental: Inhibition of MKN-45 Proliferation:
Cell proliferation assays were carried out using the high Met expressing human gastric adenocarcinoma cell line, MKN-45, according to the following schedule:
Day 1: Cells were plated in 96-well plates in complete growth medium.
Day 2: Compounds at desired concentrations were added.
Day 5: Cell viability was determined using the 3-[4,5-dimethylthiazol-2-yl]-2,5-diphenyltetrazolium bromide (MTT) dye reduction test.

Compound | GI50 | inhibition at 0.1 µM | other results
Cl.O=C(Nc1nc[nH]n1)c1ccc(-c2ccc3nnn(Cc4ccc5ncccc5c4)c3n2)cc1F [Ex 127, 2-Fluoro-4-(3-(quinolin-6-ylmethyl)-3H-[1,2,3]triazolo[4,5-b]pyridin-5-yl)-N-(1H-1,2,4-triazol-3-yl)benzamide hydrochloride] | – | – | inhibition at 1 µM (1 μM): 75 to 100%; Inhibition (% Inhibition of MKN-45 proliferation) (MKN-45 proliferation): A (A = ≥75 to 100%)
CCNC(=O)c1ccc(-c2ccc3nnn(Cc4cc5cccnc5cc4F)c3n2)cc1Cl [Ex 133, 2-Chloro-N-ethyl-4-(3-((7-fluoroquinolin-6-yl)methyl)-3H-[1,2,3]triazolo[4,5-b]pyridin-5-yl)benzamide] | ≤ 50 nM | 75 to 100% | –
COC(=O)c1ccc(-c2ccc3nnn(Cc4cc5cccnc5cc4F)c3n2)cc1F [Ex 135, Methyl 2-fluoro-4-(3-((7-fluoroquinolin-6-yl)methyl)-3H-[1,2,3]triazolo[4,5-b]pyridin-5-yl)benzoate] | – | < 25% | –
NC(=O)c1cccc(-c2ccc3nnn(Cc4ccc5ncccc5c4)c3n2)c1 [Ex 138, 3-(3-(Quinolin-6-ylmethyl)-3H-[1,2,3]triazolo[4,5-b]pyridin-5-yl)benzamide] | – | 25 to 50% | inhibition at 1 µM (1 μM): 75 to 100%
Cl.NC(=O)c1ccc(-c2ccc3nnn(Cc4cc5cccnc5cc4F)c3n2)cc1F [Ex 141, 2-Fluoro-4-(3-((7-fluoroquinolin-6-yl)methyl)-3H-[1,2,3]triazolo[4,5-b]pyridin-5-yl)benzamide hydrochloride] | – | – | Inhibition (% Inhibition of MKN-45 proliferation) (MKN-45 proliferation): A (A = ≥75 to 100%); % inhibition @ 1 uM (MKN-45 proliferation, 1 μM): A (A = ≥75 to 100%)
Cc1cc(-c2ccc3nnn(Cc4ccc5ncccc5c4)c3n2)ccc1C(N)=O [Ex 142, 2-Methyl-4-(3-(quinolin-6-ylmethyl)-3H-[1,2,3]triazolo[4,5-b]pyridin-5-yl)benzamide] | 50 to 150 nM | 75 to 100% | –
c1cnc2ccc(Cn3nnc4ccc(-c5cn[nH]c5)nc43)cc2c1 [Ex 143, 6-((5-(1H-Pyrazol-4-yl)-3H-[1,2,3]triazolo[4,5-b]pyridin-3-yl)methyl)quinoline] | 50 to 150 nM | – | –
Cn1cc(-c2ccc3nnn(Cc4ccc5ncccc5c4)c3n2)cn1 [Ex 144, 6-((5-(1-Methyl-1H-pyrazol-4-yl)-3H-[1,2,3]triazolo[4,5-b]pyridin-3-yl)methyl)quinoline] | 50 to 150 nM | – | –
Cc1n[nH]c2cc(-c3ccc4nnn(Cc5ccc6ncccc6c5)c4n3)ccc12 [Ex 168, 6-((5-(3-Methyl-1H-indazol-6-yl)-3H-[1,2,3]triazolo[4,5-b]pyridin-3-yl)methyl)quinoline] | 150 to 500 nM | – | –
c1cnc2ccc(Cn3nnc4ccc(-c5ccc6[nH]ccc6c5)nc43)cc2c1 [Ex 169, 6-((5-(1H-Indol-5-yl)-3H-[1,2,3]triazolo[4,5-b]pyridin-3-yl)methyl)quinoline] | < 1000 nM | – | –
c1cnc2ccc(Cn3nnc4ccc(-c5ccc6cc[nH]c6c5)nc43)cc2c1 [Ex 170, 6-((5-(1H-Indol-6-yl)-3H-[1,2,3]triazolo[4,5-b]pyridin-3-yl)methyl)quinoline] | < 1000 nM | – | –
Clc1cc(-c2ccc3nnn(Cc4ccc5ncccc5c4)c3n2)ccn1 [Ex 171, 6-((5-(2-Chloropyridin-4-yl)-3H-[1,2,3]triazolo[4,5-b]pyridin-3-yl)methyl)quinoline] | 150 to 500 nM | – | –
Cc1n[nH]c2ccc(-c3ccc4nnn(Cc5ccc6ncccc6c5)c4n3)cc12 [Ex 172, 6-((5-(3-Methyl-1H-indazol-5-yl)-3H-[1,2,3]triazolo[4,5-b]pyridin-3-yl)methyl)quinoline] | < 1000 nM | – | –
c1cncc(-c2ccc3nnn(Cc4ccc5ncccc5c4)c3n2)c1 [Ex 173, 6-((5-(Pyridin-3-yl)-3H-[1,2,3]triazolo[4,5-b]pyridin-3-yl)methyl)quinoline] | < 1000 nM | – | –
c1cnc2ccc(Cn3nnc4ccc(-c5cnn([C@H]6CCNC6)c5)nc43)cc2c1 [Ex 175, (S)-6-((5-(1-(Pyrrolidin-3-yl)-1H-pyrazol-4-yl)-3H-[1,2,3]triazolo[4,5-b]pyridin-3-yl)methyl)quinoline hydrochloride] | 150 to 500 nM | – | –
c1cnc2ccc(Cn3nnc4ccc(-c5cnn(CCN6CCOCC6)c5)nc43)cc2c1 [Ex 176, 4-(2-(4-(3-(Quinolin-6-ylmethyl)-3H-[1,2,3]triazolo[4,5-b]pyridin-5-yl)-1H-pyrazol-1-yl)ethyl)morpholine hydrochloride] | < 1000 nM | – | –
c1cnc2ccc(Cn3nnc4ccc(-c5cnn(C6CCOCC6)c5)nc43)cc2c1 [Ex 177, 6-((5-(1-(Tetrahydro-2H-pyran-4-yl)-1H-pyrazol-4-yl)-3H-[1,2,3]triazolo[4,5-b]pyridin-3-yl)methyl)quinoline] | < 1000 nM | – | –
Cc1nn(C)c2cc(-c3ccc4nnn(Cc5ccc6ncccc6c5)c4n3)ccc12 [Ex 179, 6-((5-(1,3-dimethyl-1H-indazol-6-yl)-3H-[1,2,3]triazolo[4,5-b]pyridin-3-yl)methyl)quinoline] | 150 to 500 nM | – | –
CCc1nn(C(=O)OC(C)(C)C)c2cc(-c3ccc4nnn(Cc5ccc6ncccc6c5)c4n3)ccc12 [Ex 181, tert-Butyl 3-ethyl-6-(3-(quinolin-6-ylmethyl)-3H-[1,2,3]triazolo[4,5-b]pyridin-5-yl)-1H-indazole-1-carboxylate] | – | < 25% | inhibition at 1 µM (1 μM): 75 to 100%

Compound | GI50 | inhibition at 0.1 µM | other results
CC(C)(c1ccc2ncccc2c1)n1nnc2ccc(-c3cnn(CCO)c3)nc21 [Ex 190, 2-(4-(3-(2-(Quinolin-6-yl)propan-2-yl)-3H-[1,2,3]triazolo[4,5-b]pyridin-5-yl)-1H-pyrazol-1-yl)ethanol] | – | < 25% | inhibition at 1 µM (1 μM): < 25%
CC(C)(c1ccc2ncccc2c1)n1nnc2ccc(-c3cn[nH]c3)nc21 [Ex 192, 6-(2-(5-(1H-Pyrazol-4-yl)-3H-[1,2,3]triazolo[4,5-b]pyridin-3-yl)propan-2-yl)quinoline] | – | < 25% | inhibition at 1 µM (1 μM): < 25%
O=C(Cn1cc(-c2ccc3nnn(Cc4ccc5ncccc5c4)c3n2)cn1)N1CCCC1 [Ex 200, 1-(Pyrrolidin-1-yl)-2-(4-(3-(quinolin-6-ylmethyl)-3H-[1,2,3]triazolo[4,5-b]pyridin-5-yl)-1H-pyrazol-1-yl)ethanone] | – | < 25% | –
COCCn1cc(-c2ccc3nnn(Cc4ccc5ncccc5c4)c3n2)cn1 [Ex 201, 6-((5-(1-(2-Methoxyethyl)-1H-pyrazol-4-yl)-3H-[1,2,3]triazolo[4,5-b]pyridin-3-yl)methyl)quinoline] | – | < 25% | –
c1ccc(Nc2ccc3nnn(Cc4ccc5ncccc5c4)c3n2)cc1 [Ex 202, N-Phenyl-3-(quinolin-6-ylmethyl)-3H-[1,2,3]triazolo[4,5-b]pyridin-5-amine] | – | < 25% | –
c1ccc(Oc2ccc3nnn(Cc4ccc5ncccc5c4)c3n2)cc1 [Ex 203, 6-((5-Phenoxy-3H-[1,2,3]triazolo[4,5-b]pyridin-3-yl)methyl)quinoline] | – | < 25% | –
NC(=O)c1cc(-c2ccc3nnn(Cc4ccc5ncccc5c4)c3n2)ccc1F [Ex 206, 2-Fluoro-5-(3-(quinolin-6-ylmethyl)-3H-[1,2,3]triazolo[4,5-b]pyridin-5-yl)benzamide] | – | 50 to 75% | –
NC(=O)c1ccc(-c2ccc3nnn(Cc4c(F)cc5ncccc5c4F)c3n2)cc1Cl [Ex 207, 2-Chloro-4-(3-((5,7-difluoroquinolin-6-yl)methyl)-3H-[1,2,3]triazolo[4,5-b]pyridin-5-yl)benzamide] | ≤ 50 nM | 75 to 100% | –
C/C(=N/NC(N)=O)c1ccc2nnn(Cc3ccc4ncccc4c3)c2n1 [Ex 209, 2-(1-(3-(Quinolin-6-ylmethyl)-3H-[1,2,3]triazolo[4,5-b]pyridin-5-yl)ethylidene) hydrazinecarboxamide] | ≤ 50 nM | 75 to 100% | –
NC(=O)c1ccc(-c2ccc3nnn(Cc4ccc5ncsc5c4)c3n2)cc1Cl [Ex 210, 4-(3-(Benzo[d]thiazol-6-ylmethyl)-3H-[1,2,3]triazolo[4,5-b]pyridin-5-yl)-2-chlorobenzamide] | ≤ 50 nM | 75 to 100% | –
CC(C)(O)c1ccc(-c2ccc3nnn(Cc4ccc5ncccc5c4)c3n2)cc1F [Ex 211, 2-(2-Fluoro-4-(3-(quinolin-6-ylmethyl)-3H-[1,2,3]triazolo[4,5-b]pyridin-5-yl)phenyl)propan-2-ol] | 150 to 500 nM | – | –
NC(=O)c1cc(-c2ccc3nnn(Cc4ccc5ncccc5c4)c3n2)ccc1Cl [Ex 212, 2-Chloro-5-(3-(quinolin-6-ylmethyl)-3H-[1,2,3]triazolo[4,5-b]pyridin-5-yl)benzamide] | – | 75 to 100% | inhibition at 1 µM (1 μM): 25 to 50%
NC(=O)c1ccc(-c2ccc3ncn(Cc4ccc5ncccc5c4)c3n2)cc1Cl [Ex 215, 2-Chloro-4-(3-(quinolin-6-ylmethyl)-3H-imidazo[4,5-b]pyridin-5-yl)benzamide] | – | < 25% | –
CC(=NO)c1ccc2nnn(Cc3ccc4ncccc4c3)c2n1 [Ex 216, 1-(3-(Quinolin-6-ylmethyl)-3H-[1,2,3]triazolo[4,5-b]pyridin-5-yl)ethanone oxime] | – | < 25% | –
CON=C(C)c1ccc2nnn(Cc3ccc4ncccc4c3)c2n1 [Ex 217, 1-(3-(Quinolin-6-ylmethyl)-3H-[1,2,3]triazolo[4,5-b]pyridin-5-yl)ethanone O-methyl oxime] | – | 50 to 75% | –
CC(=O)NN=C(C)c1ccc2nnn(Cc3ccc4ncccc4c3)c2n1 [Ex 218, N′-(1-(3-(Quinolin-6-ylmethyl)-3H-[1,2,3]triazolo[4,5-b]pyridin-5-yl)ethylidene) acetohydrazide] | – | < 25% | –
CN1CCN(c2ccc3nnn(Cc4ccc5ncccc5c4)c3n2)CC1 [Ex 219, 6-((5-(4-Methylpiperazin-1-yl)-3H-[1,2,3]triazolo[4,5-b]pyridin-3-yl)methyl)quinoline] | – | < 25% | –
NC(=O)c1ccc(-c2ccc3nnn(Cc4ccc5ncccc5c4)c3n2)cc1C(F)(F)F [Ex 223, 4-(3-(Quinolin-6-ylmethyl)-3H-[1,2,3]triazolo[4,5-b]pyridin-5-yl)-2-(trifluoromethyl)benzamide] | – | 75 to 100% | –
